# Target: T1, human GLP1R (Homo sapiens, UniProt P43220)
# T1 construct: expressed in transfected cells; host or cells: CHO cells (ATCC), transient transfection with pCMV-human GLP1R
# Assay: Human GLP-1 receptor transfected cell assay (MRE/CRE-luciferase reporter gene, agonist activity)
# Assay type: cell-based
# Conditions: 6 h; concentration 1 μM; read-out: Activity (agonist), percentage of the activity of the control
# Procedure, shortened: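 CHO cells transiently co-transfected with human GLP1R and MRE/CRE-driven luciferase reporter plasmids. Compound or GLP-1 (7-36 amide) standard dilution series added for 6 h at 37 °C, 5% CO2. Agonist activity read as Bright-Glo luciferase luminescence.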
# T1 sequence (P43220 24-463): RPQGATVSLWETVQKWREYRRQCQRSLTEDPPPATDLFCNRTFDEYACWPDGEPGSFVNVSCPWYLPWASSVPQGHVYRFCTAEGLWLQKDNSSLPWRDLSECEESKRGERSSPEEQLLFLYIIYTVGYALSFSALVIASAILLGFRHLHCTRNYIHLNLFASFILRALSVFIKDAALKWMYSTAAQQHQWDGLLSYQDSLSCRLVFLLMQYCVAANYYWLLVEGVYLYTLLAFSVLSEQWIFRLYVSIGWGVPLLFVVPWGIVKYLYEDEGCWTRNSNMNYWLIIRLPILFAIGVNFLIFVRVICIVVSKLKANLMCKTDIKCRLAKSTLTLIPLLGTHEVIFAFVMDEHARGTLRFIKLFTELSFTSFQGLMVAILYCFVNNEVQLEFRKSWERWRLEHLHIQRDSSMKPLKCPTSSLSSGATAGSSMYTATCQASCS
row,SMILES,activation at 1 µM
1,CC(C)(C)OC(=O)Nc1ccc(-c2nc(-c3ccc(CC(NC(=O)Cc4ccc(-c5ccc(C(F)(F)F)cc5)cc4)C(=O)O)cc3F)no2)cc1 (stereo not shown) [Compound 5I],> 60%
2,Cc1ccc(-c2cccc(C(=O)NC(Cc3ccc(-c4noc(-c5ccc(NC(=O)OC(C)(C)C)cc5)n4)nc3)C(=O)O)c2)cc1 (stereo not shown) [Compound 5K],> 60%
3,Cc1ccc(-c2ccc(C(=O)NC(Cc3ccc(-c4noc(-c5ccc(NC(=O)OC(C)(C)C)cc5)n4)c(F)c3F)C(=O)O)o2)cc1F (stereo not shown) [Compound 5M],> 60%
4,Cc1ccc(-c2ccc(C(=O)NC(Cc3ccc(-c4ccc(-c5ccc(NC(=O)OC(C)(C)C)cc5)s4)c(F)c3)C(=O)O)o2)cc1 (stereo not shown) [Compound 5N],> 60%

# Same assay, conditions: 6 h; concentration 3.16 μM; read-out: Activity (agonist), percentage of the activity of the control
row,SMILES,activation at 3.16 µM
1,Cc1ccc(-c2ccc(C(=O)NC(Cc3ccc(-c4noc(-c5ccc(NC(=O)OC(C)(C)C)cc5)n4)cc3C(F)(F)F)C(=O)O)o2)cc1 (stereo not shown) [Compound 5J],> 60%
2,CC(C)(C)OC(=O)Nc1ccc(-c2ccc(-c3ccc(CC(NC(=O)c4ccc(-c5ccc(F)cc5)o4)C(=O)O)cc3F)s2)cc1 (stereo not shown) [Compound 5O],> 60%
3,CC(C)(C)OC(=O)Nc1ccc(/C=C/c2ccc(CC(NC(=O)c3ccc(NC(=O)OC(C)(C)C)cc3)C(=O)O)cc2F)cc1 (stereo not shown) [Compound 5R],40 to 60%

# Same assay, conditions: 6 h; concentration 5 μM; read-out: Activity (agonist), percentage of the activity of the control
row,SMILES,activation at 5 µM
1,Cc1ccc(N2CCN(CC(=O)NC(Cc3ccc(-c4noc(-c5ccc(NC(=O)OC(C)(C)C)cc5)n4)c(F)c3)C(=O)O)CC2)cc1 (stereo not shown) [Compound 5H],> 60%

# Same assay, conditions: 6 h; concentration 10 μM; read-out: Activity (agonist), percentage of the activity of the control
row,SMILES,activation at 10 µM
1,Cc1ccc(-c2ccc(NC(=O)NC(Cc3ccc(-c4noc(-c5ccc(NC(=O)OC(C)(C)C)cc5)n4)c(F)c3)C(=O)O)nc2)cc1F (stereo not shown) [Compound 5F],> 60%
2,CC(=O)N(Cc1ccc(-c2ccc(C)cc2)o1)C(Cc1ccc(-c2noc(-c3ccc(NC(=O)OC(C)(C)C)cc3)n2)c(F)c1)C(=O)O (stereo not shown) [Compound 5G],> 60%
3,Cc1ccc(-c2ccc(C(=O)NC(Cc3cc(F)c(-c4noc(-c5ccc(NC(=O)OC(C)(C)C)cc5)n4)c(F)c3)C(=O)O)o2)cc1 (stereo not shown) [Compound 5L],> 60%
4,Cc1ccc(-c2ccc(C(=O)N[C@H](Cc3ccc(-c4cc(-c5ccc(NC(=O)OC(C)C)cc5)[nH]n4)c(F)c3)C(=O)O)o2)cc1 [Compound 5P],> 60%

# Continued, values first:
row,activation at 10 µM,SMILES
1,> 60%,Cc1ccc(-c2ccc(C(=O)N[C@H](Cc3ccc(-c4cn(-c5ccc(NC(=O)OC(C)C)cc5)nn4)c(F)c3)C(=O)O)o2)cc1 [Compound 5Q]
2,> 60%,Cc1ccc(-c2ccc(C(=O)NC(Cc3ccc(NC(=O)c4cccc(Br)c4)c(F)c3)C(=O)O)o2)cc1 (stereo not shown) [Compound 5S]
3,> 60%,Cc1ccc(-c2ccc(C(=O)N[C@H](Cc3ccc(/C=C/c4ccc(NC(=O)OC(C)(C)C)cc4)c(F)c3)C(=O)O)o2)cc1 [Compound 5T]
4,> 60%,Cc1ccc(-c2cccc(C(=O)NC(Cc3ccc(-c4noc(C(=O)N5CCC(C)CC5)n4)c(F)c3)C(=O)O)c2)cc1 (stereo not shown) [Compound 5U]
5,> 60%,COc1cc2c(cc1OC(=O)c1ccc(NC(=O)OC(C)(C)C)cc1)CN(S(=O)(=O)c1ccc(C)cc1)C(C(=O)O)C2 (stereo not shown) [Compound 5V]
6,> 60%,COc1cc2c(cc1OC(=O)c1ccc(NC(=O)OC(C)(C)C)cc1)CN(C(=O)c1ccc(-c3ccc(C)cc3)o1)C(C(=O)O)C2 (stereo not shown) [Compound 5W]
7,> 60%,CC(C)(C)OC(=O)Nc1ccc(C(=O)Oc2ccc3c(c2)CN(C(=O)c2ccc(NC(=O)OC(C)(C)C)cc2)C(C(=O)O)C3)cc1 (stereo not shown) [Compound 5X]
8,> 60%,Cc1ccc(S(=O)(=O)N2Cc3cc(OC(=O)c4ccc(NC(=O)OC(C)(C)C)cc4)ccc3CC2C(=O)O)cc1F (stereo not shown) [Compound 5Y]
9,> 60%,Cc1ccc(-c2ccc(C(=O)NC3(C(=O)O)Cc4ccc(-c5noc(-c6ccc(NC(=O)OC(C)(C)C)cc6)n5)cc4C3)o2)cc1 (stereo not shown) [Compound 5Z]
10,> 60%,CC(C)(C)OC(=O)Nc1ccc(-c2nc(-c3ccc(C[C@@H](NC(=O)c4cccc(-c5ccc(Cl)cc5)c4)C(=O)O)cc3F)no2)cc1 [Compound 6A]

# Source: patent publication US8748412B2, “Phenylalanine derivatives and their use as non-peptide GLP-1 receptor modulators” (Argusina Bioscience Inc., priority 2011, dated 2014)
